These results are taken from ChEMBL document CHEMBL1129517, “Pyrazolo[4,3-e]-1,2,4-triazolo[1,5-c]pyrimidine derivatives: potent and selective A(2A) adenosine antagonists” (J Med Chem, 1996).

SMILES strings stand for the structures.

For one test, the target named is Adenosine receptor A2a (Rattus norvegicus, UniProt P30543).
A further test has as its target T1, Adenosine receptor A1 (Rattus norvegicus, UniProt P25099).
T1 sequence (P25099 whole entry): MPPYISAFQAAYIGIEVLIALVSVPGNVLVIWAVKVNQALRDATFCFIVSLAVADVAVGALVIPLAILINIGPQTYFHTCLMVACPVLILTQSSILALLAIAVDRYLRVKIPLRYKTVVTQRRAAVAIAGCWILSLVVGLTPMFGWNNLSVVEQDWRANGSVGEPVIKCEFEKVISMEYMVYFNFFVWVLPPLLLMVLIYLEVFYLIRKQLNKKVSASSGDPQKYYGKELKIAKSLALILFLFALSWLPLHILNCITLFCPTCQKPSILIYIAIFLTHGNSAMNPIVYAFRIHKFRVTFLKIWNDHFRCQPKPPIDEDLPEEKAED
Kind of test: biochemical.

Test [1] deals with Adenosine receptor A2a (Oryctolagus cuniculus).

Sequence of Adenosine receptor A2a (P30543 whole entry): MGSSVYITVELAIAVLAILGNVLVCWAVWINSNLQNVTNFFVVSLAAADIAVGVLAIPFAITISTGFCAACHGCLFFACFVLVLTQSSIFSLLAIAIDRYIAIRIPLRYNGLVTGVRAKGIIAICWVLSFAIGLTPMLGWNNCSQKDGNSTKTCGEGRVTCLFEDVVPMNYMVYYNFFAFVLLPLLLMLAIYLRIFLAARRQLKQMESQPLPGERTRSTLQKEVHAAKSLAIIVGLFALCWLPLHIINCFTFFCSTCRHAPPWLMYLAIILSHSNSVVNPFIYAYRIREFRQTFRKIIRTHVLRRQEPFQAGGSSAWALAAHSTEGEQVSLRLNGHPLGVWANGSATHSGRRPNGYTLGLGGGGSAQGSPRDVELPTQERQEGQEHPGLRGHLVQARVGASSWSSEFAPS
Description for Adenosine receptor A1: Inhibition of [3H]-CHA binding to Adenosine A1 receptor in rat whole brain homogenates.

What is called Ki is a dissociation constant, usually derived from enzyme kinetics or from competition with a known ligand. Low values mean higher affinity, high ones lower affinity. For `Nc1nc2c(cnn2CCOCc2ccccc2)c2nc(-c3ccco3)nn12`, the Ki at Adenosine receptor A2a and at Adenosine receptor A1 was greater than 1000 nM throughout.

Turning to `CC(C)Cc1ccc(CCn2ncc3c2nc(N)n2nc(-c4ccco4)nc32)cc1`, the Ki at Adenosine receptor A2a is 22 nM; at Adenosine receptor A1, greater than 3000 nM. This molecule displayed an ED50 in test [1] of less than 1000 nM.

On Adenosine receptor A2a, `Nc1nc2c(cnn2CCO)c2nc(-c3ccco3)nn12` came in with a Ki of 77.7 nM.

Turning to `CCCCn1ncc2c1nc(N)n1nc(-c3ccco3)nc21`, the ED50 in test [1] worked out at 300 nM.

In test [1], `Nc1nc2nn(Cc3ccc(F)cc3)cc2c2nc(-c3ccco3)nn12` gave an ED50 of 4 nM.

On to `Nc1nc2n[nH]cc2c2nc(-c3ccco3)nn12`, for which the figures for the Ki on Adenosine receptor A2a and on Adenosine receptor A1 were 22.6 nM and 210 nM, respectively.

In the case of `Nc1nc2c(cnn2-c2ccccc2)c2nc(-c3ccco3)nn12`, the values for the Ki at Adenosine receptor A2a and at Adenosine receptor A1 were 22.7 nM and 119 nM, respectively. The molecule also registered an ED50 in test [1] greater than 1000 nM.

`Nc1nc2c(cnn2Cc2ccc(F)cc2)c2nc(-c3ccco3)nn12`: the Ki at Adenosine receptor A2a was 12 nM; at Adenosine receptor A1, 189 nM. For the same molecule, the ED50 in test [1] was found to be 10600 nM.

In the case of `Nc1nc2c(cnn2CCCCc2ccccc2)c2nc(-c3ccco3)nn12`, the Ki at Adenosine receptor A2a is 21 nM; on Adenosine receptor A1, 2710 nM.

On to `Nc1nc2c(cnn2CCN2CCOCC2)c2nc(-c3ccco3)nn12`, for which the Ki on Adenosine receptor A2a came to 5.6 nM; at Adenosine receptor A1, 471 nM. This molecule returned an ED50 in test [1] of 30 nM.

For the molecule `CCC(C)Cn1ncc2c1nc(N)n1nc(-c3ccco3)nc21` (centres undefined), the Ki was found to be 12 nM at Adenosine receptor A2a and 116 nM at Adenosine receptor A1.

With `CC(C)(C)n1ncc2c1nc(N)n1nc(-c3ccco3)nc21`, the figures for the inhibitory constant (Ki) at Adenosine receptor A2a and on Adenosine receptor A1 were 260 nM and 430 nM, respectively.

As for `Nc1nc2c(cnn2CCCc2ccccc2)c2nc(-c3ccco3)nn12` [SCH-63390], the Ki at Adenosine receptor A2a was 2.4 nM; on Adenosine receptor A1, 504 nM.

Consider `OCCn1ncc2c1nc(NCc1ccccc1)n1nc(-c3ccco3)nc21`, for which the Ki at Adenosine receptor A2a came to 166 nM; at Adenosine receptor A1, 330 nM.
